Counter-ions that a name gives are not always drawn.
System: SpA BF changes during SpN stimulation
Assay: Local lidocaine block of SpN stimulation-induced changes in splenic artery blood flow
Type: in vivo, pig
Conditions: 2% lidocaine hydrochloride solution applied locally around the implanted SpN cuff
Experimental: On the experimental day, the animal was sedated with ketamine (1.5 mg/kg) and midazolam (0.5 mg/kg) administered by intramuscular injection. An intravenous catheter was placed in one auricular vein, and anesthesia was induced by propofol (2 mg/Kg) administered intravenously. An endotracheal tube was placed, and anesthesia was maintained with sevoflurane inhalant combined with continuous rate infusion (CRI) of fentanyl (0.2 μg/Kg/min).
The surgical approach to SpN cuff implantation was as follows. The thoracolumbar junction was supported and slightly elevated using a sand bag. After appropriate surgical preparation (clipping and aseptic scrub with chlorhexidine gluconate and alcohol), the left flank was aseptically draped exposing a 20×25 cm area centered on the second to last rib. A 15 cm skin incision was made in the second to last intercostal space using monopolar electrocautery. The incision was continued through the subcutaneous tissues and intercostal musculature until the peritoneum was exposed. […]
By slight rotation of the splenic visceral base towards the operator, and placing gentle ventral traction on the spleen, the gastrosplenic ligament at the splenic hilum was incised using Metzembaum scissors, exposing the SpA. […] SpA blood flow readings were tested and finally the rib retractors were partially closed and the exposed incision covered with saline-soaked gauze sponges. […]

## CCN(CC)CC(=O)Nc1c(C)cccc1C [Lidocaine, lidocaine hydrochloride]
  effect on changes in SpA BF caused by SpN stimulation: able to block the changes in SpA BF

From patent US12161869B2, “Treatment of disorders associated with inflammation” (Galvani Bioelectronics Limited, priority 2017, dated 2024)
